From PMC8565515, “Dasabuvir Inhibits Human Norovirus Infection in Human Intestinal Enteroids” (mSphere, 2021)
Structures can show the parent of a compound that is named as a salt. Where two headings read alike, the source gives them in different places.

Experiments:
GII.4 HuNoV = GII.4 HuNoV infection of HIE monolayers, viral genome equivalents by RT-qPCR; format: cell-based, human norovirus; conditions: for activity at 10 µM: Norovirus, 24 h, read-out: (%) HuNoV GEs
J2 HIE monolayers [1] = experiment: Cytotoxicity by LDH assay in J2 HIE monolayers; conditions: 24 hpi; for (%) Cytotoxicity: compound 10 μM, n = 1, LDH assay, J2 HIE monolayers infected with GII.4 HuNoV, normalized to DMSO control
J2 HIE monolayers [2] = conditions: human, 24 h, 10 μM
[3] = compound 10 μM, n = 1, J2 HIE monolayers, GII.4 HuNoV, 24 hpi, normalized to DMSO control

| SMILES | (%) Cytotoxicity (J2 HIE monolayers [1]) [%] | activity at 10 µM (GII.4 HuNoV; [3]) [%] | also measured |
| --- | --- | --- | --- |
| CC(C)OC(=O)[C@H](C)N[P@](=O)(CO[C@H](C)Cn1cnc2c(N)ncnc21)Oc1ccccc1 [Tenofovir alafenamide] | -0.20 | – | activity at 10 µM (GII.4 HuNoV): 55.2% |
| COC(=O)c1cc(OC)c2c(c1-c1c(CO)cc(OC)c3c1OCO3)OCO2 [Bicyclol] | 0.26 | 162 | – |
| Cc1cc(/C=C/C#N)cc(C)c1Nc1ccnc(Nc2ccc(C#N)cc2)n1 [Rilpivirine] | 0.20 | 117 | – |
| O=C(/C=C\n1cnc(-c2cc(C(F)(F)F)cc(C(F)(F)F)c2)n1)NNc1ccccn1 [Verdinexor] | 10.81 | 142 | – |
| CCOC(=O)c1c(CSc2ccccc2)n(C)c2cc(Br)c(O)c(CN(C)C)c12.Cl [Arbidol hydrochloride] | 15.58 | – | (%) HuNoV GEs (GII.4 HuNoV; [3]): 16.88% |
| COC[C@H]1C[C@@H](c2ncc(-c3ccc4c(c3)COc3cc5c(ccc6nc([C@@H]7CC[C@H](C)N7C(=O)[C@@H](NC(=O)OC)C(C)C)[nH]c65)cc3-4)[nH]2)N(C(=O)[C@H](NC(=O)OC)c2ccccc2)C1 [Velpatasvir] | 1.45 | 59.8 | – |
| CCOC(=O)CCC(=O)O[C@H]1[C@H](O[C@@H]2[C@@H](C)[C@H](O[C@H]3C[C@@](C)(OC)[C@@H](O)[C@H](C)O3)[C@@H](C)C(=O)O[C@H](CC)[C@@](C)(O)[C@H](O)[C@@H](C)C(=O)[C@H](C)C[C@@]2(C)O)O[C@H](C)C[C@@H]1N(C)C [Erythromycin ethylsuccinate] | 0.23 | 107 | – |
| C[C@@]1(O)[C@H](O)[C@@H](CO)O[C@H]1n1ccc(N)nc1=O [2-CMC, 2′-C-methylcytidine] | – | – | effect on HuNoV infection (GII.4 HuNoV; 389 μM, J2 monolayers, GII.4 HuNoV, 24 hpi, positive control): completely blocked viral infection; cytotoxicity (J2 HIE monolayers [1]; 389 μM, J2 monolayers): without any cytotoxicity |
| Cc1ccnc2c1NC(=O)c1cccnc1N2C1CC1 [Nevirapine] | 0.72 | 56.6 | – |
| COc1ccc([C@H]2OC[C@H]3[C@@H]2CO[C@H]3c2ccc(O[C@@H]3O[C@H](CO)[C@@H](O)[C@H](O)[C@H]3O)c(OC)c2)cc1OC [Forsythin] | 1.24 | – | (%) HuNoV GEs (GII.4 HuNoV; [3]): 52.42% |
| COc1cc2c(cc1Cc1cccc(Cl)c1F)c(=O)c(C(=O)O)cn2[C@H](CO)C(C)C [Elvitegravir] | 0.85 | 164 | – |
| O=c1[nH]c(=O)n([C@H]2C[C@H](O)[C@@H](CO)O2)cc1/C=C/Br [Brivudine] | 4.68 | 34.8 | – |
| O=C1C[C@@H](c2ccc(O)cc2)Oc2cc(O)cc(O)c21 [Naringenin] | 1.14 | 165 | – |
| Cc1nnc(C(=O)NC(C)(C)c2nc(C(=O)NCc3ccc(F)cc3)c(O)c(=O)n2C)o1 [Raltegravir] | 1.45 | 49.3 | – |
| COc1cc2ncnc(Nc3cccc(Cl)c3)c2cc1OC [AG-1478] | 84.88 | – | – |
| CN(C)[C@@H]1C(O)=C(C(N)=O)C(=O)[C@@]2(O)C(O)=C3C(=O)c4c(O)cccc4[C@@](C)(O)[C@H]3C[C@@H]12 [Tetracycline] | 0.09 | 108 | – |
| CC(C)=O.COC(=O)N[C@H](C(=O)N1CC2(CC2)C[C@H]1c1ncc(-c2ccc3c(c2)C(F)(F)c2cc(-c4ccc5nc([C@@H]6[C@H]7CC[C@H](C7)N6C(=O)[C@@H](NC(=O)OC)C(C)C)[nH]c5c4)ccc2-3)[nH]1)C(C)C [Ledipasvir acetone] | 6.17 | – | (%) HuNoV GEs (GII.4 HuNoV; [3]): 133.29% |
| CC1(C)CC[C@]2(C(=O)O)CC[C@]3(C)C(=CC[C@@H]4[C@@]5(C)CC[C@H](O)C(C)(C)[C@@H]5CC[C@]43C)[C@@H]2C1 [Oleanolic Acid] | 4.14 | 82 | – |
| C[C@H]1CC[C@@]2(O)C(C)(C)[C@@H]3CC[C@@]2(C)[C@H]1C3 [Patchouli alcohol] | 1.24 | – | (%) HuNoV GEs (GII.4 HuNoV; [3]): 83.87% |
| Cl.N=C(N=C(N)N)N1CCOCC1 [Moroxydine hydrochloride] | -1.11 | – | (%) HuNoV GEs (GII.4 HuNoV; [3]): 119.22% |
| Nc1ncnc2c1ncn2[C@@H]1O[C@H](COP(=O)(O)O)[C@@H](O)[C@H]1O.O [Adenosine 5'-monophosphate monohydrate] | 0.18 | 34.4 | – |
| Cc1nc(N(C)C(=O)Cc2ccc(-c3ccccn3)cc2)sc1S(N)(=O)=O [Pritelivir] | -1.63 | 64.5 | – |
| NC(=O)c1nc(F)c[nH]c1=O [Favipiravir] | -1.51 | 81 | – |
| O=C1CCC[C@@H]2[C@H]3CCC[N+]4([O-])CCC[C@@H](CN12)[C@@H]34 (stereo partly shown) [Oxymatrine] | 2.33 | 56.1 | – |
| O=C(Nc1ccc(O)cc1)c1ccccc1O [Osalmid] | 3.16 | 52.1 | – |

| SMILES | (%) Cytotoxicity (J2 HIE monolayers [1]) [%] | activity at 10 µM (GII.4 HuNoV; [3]) [%] | also measured |
| --- | --- | --- | --- |
| CCCCCCCCCC(=O)O[C@H]1CC[C@H]2[C@@H]3CCC4=CC(=O)CC[C@@H]4[C@H]3CC[C@]12C [Nandrolone decanoate] | 0.98 | 58.9 | – |
| COc1ccc(C2CNC(=O)C2)cc1OC1CCCC1 (stereo not shown) [Rolipram] | -0.46 | 78.7 | – |
| CN[C@@H]1[C@H](O)[C@H](NC)[C@H]2O[C@@]3(O)C(=O)C[C@@H](C)O[C@H]3O[C@@H]2[C@H]1O.Cl.Cl [Spectinomycin dihydrochloride] | -1.44 | – | (%) HuNoV GEs (GII.4 HuNoV; [3]): 109.17% |
| C=C1CC[C@@H]2[C@](C)(CO)[C@H](O)CC[C@@]2(C)[C@@H]1C/C=C1/C(=O)OC[C@H]1O [Andrographolide] | -1.18 | 70.9 | – |
| CC(C)c1nc(CN(C)C(=O)N[C@@H](CCN2CCOCC2)C(=O)N[C@H](CC[C@H](Cc2ccccc2)NC(=O)OCc2cncs2)Cc2ccccc2)cs1 [Cobicistat] | -2.34 | 19.8 | – |
| CN(C)C[C@H](O)Cn1c2ccc(Br)cc2c2cc(Br)ccc21 (racemic) [Wiskostatin] | 2.02 | 22.9 | – |
| COc1ccnc(C[S+]([O-])c2nc3ccc(-n4cccc4)cc3[n-]2)c1C.[Na+] (stereo not shown) [Ilaprazole sodium] | 1.57 | – | (%) HuNoV GEs (GII.4 HuNoV; [3]): 39.34% |
| C[C@H]1CO[C@@H]2Cn3cc(C(=O)NCc4ccc(F)cc4F)c(=O)c(O)c3C(=O)N12 [Cabotegravir] | 5.83 | 54.1 | – |
| CC(C)(C)C#Cc1cc(N(C(=O)[C@H]2CC[C@H](C)CC2)[C@H]2CC[C@H](O)CC2)c(C(=O)O)s1 [Lomibuvir] | -1.75 | 87.6 | – |
| COC(=O)N[C@H](C(=O)NNC[C@H](O)[C@H](Cc1ccccc1)NC(=O)[C@@H](NC(=O)OC)C(C)(C)C)C(C)(C)C [Des(benzylpyridyl) Atazanavi] | 2.40 | – | (%) HuNoV GEs (GII.4 HuNoV; [3]): 101.09% |
| CC(C)OC(=O)[C@H](C)N[P@](=O)(OC[C@H]1O[C@@H](n2ccc(=O)[nH]c2=O)[C@](C)(F)[C@@H]1O)Oc1ccccc1 [Sofosbuvir] | 0.74 | 22.6 | – |
| CC1(C)[C@@H](O[C@H]2O[C@H](C(=O)O)[C@@H](O)[C@H](O)[C@H]2O[C@@H]2O[C@H](C(=O)O)[C@@H](O)[C@H](O)[C@H]2O)CC[C@]2(C)[C@H]3C(=O)C=C4[C@@H]5C[C@@](C)(C(=O)O)CC[C@]5(C)CC[C@@]4(C)[C@]3(C)CC[C@@H]12.N.N [Diammonium Glycyrrhizinate] | 0.23 | – | (%) HuNoV GEs (GII.4 HuNoV; [3]): 22.61% |
| Cc1cnc(C(=O)N[C@H]2CCCCC/C=C\[C@@H]3C[C@@]3(C(=O)NS(=O)(=O)C3CC3)NC(=O)[C@@H]3C[C@@H](Oc4nc5ccccc5c5ccccc45)CN3C2=O)cn1 [Paritaprevir] | -0.33 | 45 | – |
| CC(C)c1cc(Oc2c(Cl)cc(-n3nc(C#N)c(=O)[nH]c3=O)cc2Cl)n[nH]c1=O [MGL3196] | -0.56 | 70.8 | – |
| CC1(C)[C@@H](O[C@H]2O[C@H](C(=O)O)[C@@H](O)[C@H](O)[C@H]2O[C@@H]2O[C@H](C(=O)O)[C@@H](O)[C@H](O)[C@H]2O)CC[C@]2(C)[C@H]3C(=O)C=C4[C@@H]5C[C@@](C)(C(=O)O)CC[C@]5(C)CC[C@@]4(C)[C@]3(C)CC[C@@H]12 [Glycyrrhizin] | 4.28 | 103 | – |
| CCOC(=O)c1c(C)n(C)c2ccc(O)cc12 [Mecarbinate] | 0.93 | – | (%) HuNoV GEs (GII.4 HuNoV; [3]): 102.13% |
| CC1(C)CC[C@]2(C(=O)O)CC[C@]3(C)C(=CC[C@@H]4[C@@]5(C)CCC(=O)C(C)(C)[C@@H]5CC[C@]43C)[C@@H]2C1 [Oleanonic Acid] | -3.05 | 11.9 | – |
| CC(N)C12CC3CC(CC(C3)C1)C2 (stereo not shown) [Rimantadine hydrochloride] | 2.41 | 40.9 | – |
| O=c1c2ccccc2[se]n1-c1ccccc1 [Ebselen] | 2.77 | 96.7 | – |
| CC[n+]1c(-c2ccccc2)c2cc(N)ccc2c2ccc(N)cc21 [Ethidium bromide] | -1.16 | 21.1 | – |
| Nc1nc2c(ncn2[C@@H]2O[C@H](CO)[C@@H](O)[C@H]2O)c(=O)[nH]1 [Guanosine] | 0.15 | 32.3 | – |
| O=S(=O)(CCC(F)=C(F)F)c1ncc(Cl)s1 [Fluensulfone] | -2.22 | – | (%) HuNoV GEs (GII.4 HuNoV; [3]): 63.19% |
| CC1(C)O[C@H]2CC(=O)OC[C@]23[C@H]2CC[C@@]4(C)[C@H](c5ccoc5)OC(=O)[C@H]5O[C@]54[C@]2(C)C(=O)C[C@@H]13 [Limonin] | – | 59.9 | (%) Cytotoxicity (J2 HIE monolayers [2]): 0.73% |
| Clc1ccc(Cn2c(CN3CCCC3)nc3ccccc32)cc1 [Clemizole] | – | 85.7 | (%) Cytotoxicity (J2 HIE monolayers [2]): 3.11% |
